Source: patent US11744814B2, “Methods and pharmaceutical preparations for elevating blood hemoglobin and oxygen saturation levels with hydroxycitric acid” (GLYKON TECHNOLOGIES GROUP, LLC, priority 2020, dated 2023)

What was measured:
pancreatic alpha-amylase = biological target: T1, pancreatic alpha-amylase (Homo sapiens, UniProt P04746); details: background statement, in vitro; cited from earlier work
T1 sequence (P04746 16-511): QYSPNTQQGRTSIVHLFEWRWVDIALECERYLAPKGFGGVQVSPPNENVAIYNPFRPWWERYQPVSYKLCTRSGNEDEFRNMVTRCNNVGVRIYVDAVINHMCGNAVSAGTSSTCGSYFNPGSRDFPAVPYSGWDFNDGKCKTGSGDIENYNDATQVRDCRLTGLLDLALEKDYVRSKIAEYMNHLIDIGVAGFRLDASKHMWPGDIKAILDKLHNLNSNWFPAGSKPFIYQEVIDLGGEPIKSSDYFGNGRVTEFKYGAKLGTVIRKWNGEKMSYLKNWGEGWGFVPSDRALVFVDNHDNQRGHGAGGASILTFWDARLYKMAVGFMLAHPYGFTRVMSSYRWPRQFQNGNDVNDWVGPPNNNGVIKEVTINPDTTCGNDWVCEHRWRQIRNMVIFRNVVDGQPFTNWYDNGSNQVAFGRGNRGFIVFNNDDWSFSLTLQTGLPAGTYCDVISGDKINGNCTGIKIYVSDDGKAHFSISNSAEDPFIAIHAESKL

[1] = tested on: intestinal alpha-glucosidase; details: background statement, in vitro; cited from earlier work
[2] = fNIRS measurement of blood hemoglobin and oxygen saturation after the Example 1 formulation; assay type: in vivo, human; details: conclusion over the examples, HCA administration
Procedure: Subjects 1-4 were orally administered the formulation of Example 1. The Subjects were given either one or two administrations of 8.33 ml of the aqueous formulation of Example 1 on an empty stomach, i.e. wherein with each 8.33 ml the subject received 2,500 mg of the potassium-magnesium (−)-hydroxycitric acid salt, corresponding to 1745 mg of (−)-hydroxycitric acid.
fNIRS testing (functional Near Infrared Spectroscopy) was used to measure blood hemoglobin and oxygen saturation. fNIRS can be used to determine real-time peripheral and cerebral hemodynamic responses. For example, relative changes in HbR (deoxygen saturation), HbO (oxygen saturation), and HbT (total hemoglobin concentration), etc. can be determined via application of Modified Beer Lambert Law. HbR, Hb=deoxygen saturation (shown as the thinnest and bottom dashed line in FIG. 1) HbO, HbO2=oxygen saturation (shown as the medium-thickness and middle line in FIG. 1) HbT=total hemoglobin concentration (shown as the darkest, thickest and top line in FIG. 1). On the graphs, time is in seconds.

[3] = Blood levels of biomolecules before and 90 minutes after the Example 1 formulation; assay type: in vivo, human; details: conclusion over the examples, HCA administration
Procedure: Subject 5 was a person, weighing approximately 285 pounds and with a normal fasting blood sugar level of 115-120. First, blood was drawn from Subject 5 and levels of various biomolecules were measured. Next, Subject 5 was administered 16.66 ml of the Example 1 formulation on an empty stomach, i.e. wherein with each 16.66 ml the subject received 5,000 mg of the potassium-magnesium (−)-hydroxycitric acid salt, corresponding to 3490 mg of (−)-hydroxycitric acid. 90 minutes after the administration, blood was drawn from Subject 5 and levels of the various biomolecules were remeasured.
Subject 6 was administered 16.66 ml of the Example 1 formulation on an empty stomach, i.e. wherein with each 16.66 ml the subject received 5,000 mg of the potassium-magnesium (−)-hydroxycitric acid salt, corresponding to 3490 mg of (−)-hydroxycitric acid. 90 minutes after the administration, blood was drawn from Subject 6 and levels of the various biomolecules were remeasured.

ATP citrate lyase = biological target: T2, ATP citrate lyase (Homo sapiens, UniProt P53396); details: background statement; cited from earlier work
T2 sequence (P53396 1-1101): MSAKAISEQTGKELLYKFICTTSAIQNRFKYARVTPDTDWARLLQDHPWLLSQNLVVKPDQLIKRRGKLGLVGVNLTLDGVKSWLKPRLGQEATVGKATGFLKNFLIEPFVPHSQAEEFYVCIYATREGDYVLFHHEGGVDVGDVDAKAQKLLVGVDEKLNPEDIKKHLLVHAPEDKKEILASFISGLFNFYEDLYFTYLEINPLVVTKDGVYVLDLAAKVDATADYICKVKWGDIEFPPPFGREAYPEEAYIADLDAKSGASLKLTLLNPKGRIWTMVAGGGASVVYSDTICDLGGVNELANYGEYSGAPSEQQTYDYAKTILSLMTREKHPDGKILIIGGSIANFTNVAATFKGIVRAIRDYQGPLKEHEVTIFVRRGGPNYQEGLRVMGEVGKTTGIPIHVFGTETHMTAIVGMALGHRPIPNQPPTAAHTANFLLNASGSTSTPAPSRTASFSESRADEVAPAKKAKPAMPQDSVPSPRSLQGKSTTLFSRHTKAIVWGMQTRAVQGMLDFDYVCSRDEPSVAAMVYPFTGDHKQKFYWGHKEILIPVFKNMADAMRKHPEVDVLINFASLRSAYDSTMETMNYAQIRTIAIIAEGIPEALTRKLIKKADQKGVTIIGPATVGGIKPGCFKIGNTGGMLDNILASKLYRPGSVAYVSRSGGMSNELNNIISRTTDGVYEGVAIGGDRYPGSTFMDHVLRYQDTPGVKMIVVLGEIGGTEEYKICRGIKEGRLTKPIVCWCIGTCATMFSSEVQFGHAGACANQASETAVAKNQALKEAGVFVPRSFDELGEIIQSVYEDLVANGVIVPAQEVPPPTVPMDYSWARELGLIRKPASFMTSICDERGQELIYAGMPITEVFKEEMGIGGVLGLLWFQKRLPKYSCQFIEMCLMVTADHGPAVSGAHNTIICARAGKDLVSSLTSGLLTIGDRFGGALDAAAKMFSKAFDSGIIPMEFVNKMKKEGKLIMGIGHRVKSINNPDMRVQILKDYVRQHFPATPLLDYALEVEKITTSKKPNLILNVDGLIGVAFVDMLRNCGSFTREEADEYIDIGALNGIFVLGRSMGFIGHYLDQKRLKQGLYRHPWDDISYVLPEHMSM

Row | Structure (SMILES) | inhibition of pancreatic alpha-amylase (pancreatic alpha-amylase) | inhibition of intestinal alpha-glucosidase [1] | blood hemoglobin [2] | oxygen saturation [2] | cortisol [3] | levels of ketones [3] | triglycerides [3] | glucose ([3]; in some cases transient) | inhibition of ATP citrate lyase (ATP citrate lyase)
1 | O=C(O)C[C@](O)(C(=O)O)[C@H](O)C(=O)O [(2S,3R)-HCA] | inhibits | inhibits | – | – | – | – | – | – | –
2 | O=C(O)CC(O)(C(=O)O)C(O)C(=O)O (stereo not drawn) [HCA, 1,2-dihydroxypropane-1,2,3-tricarboxylic acid] | – | – | increased | increased | decreased | relatively stable or slightly lower | decreased | increased | competitive inhibitor
